Data from patent US7217555B1, “Cloning and characterisation of novel mammalian peptidase” (Janssen Pharmaceutica N.V., priority 1998, dated 2007).

How the values were obtained:
Assay type in all cases: biochemical
[1] = target: T1, NAALAD-ase L (Homo sapiens, UniProt Q9UQQ1); test: [3H]-NAAG hydrolysis assay, COS cells transfected with NAALAD-ase L; conditions: recombinant preparation from COS cells
T1 construct: To construct a full length NAALAD-ase L clone, two new primer sets were designed; expressed in transfected cells; host or cells: COS cells, transient, pcDNA-3
T1 sequence (Q9UQQ1 1-740 S100X/R686S/T687H/S689L/V690R/V691S/T692H/F693I): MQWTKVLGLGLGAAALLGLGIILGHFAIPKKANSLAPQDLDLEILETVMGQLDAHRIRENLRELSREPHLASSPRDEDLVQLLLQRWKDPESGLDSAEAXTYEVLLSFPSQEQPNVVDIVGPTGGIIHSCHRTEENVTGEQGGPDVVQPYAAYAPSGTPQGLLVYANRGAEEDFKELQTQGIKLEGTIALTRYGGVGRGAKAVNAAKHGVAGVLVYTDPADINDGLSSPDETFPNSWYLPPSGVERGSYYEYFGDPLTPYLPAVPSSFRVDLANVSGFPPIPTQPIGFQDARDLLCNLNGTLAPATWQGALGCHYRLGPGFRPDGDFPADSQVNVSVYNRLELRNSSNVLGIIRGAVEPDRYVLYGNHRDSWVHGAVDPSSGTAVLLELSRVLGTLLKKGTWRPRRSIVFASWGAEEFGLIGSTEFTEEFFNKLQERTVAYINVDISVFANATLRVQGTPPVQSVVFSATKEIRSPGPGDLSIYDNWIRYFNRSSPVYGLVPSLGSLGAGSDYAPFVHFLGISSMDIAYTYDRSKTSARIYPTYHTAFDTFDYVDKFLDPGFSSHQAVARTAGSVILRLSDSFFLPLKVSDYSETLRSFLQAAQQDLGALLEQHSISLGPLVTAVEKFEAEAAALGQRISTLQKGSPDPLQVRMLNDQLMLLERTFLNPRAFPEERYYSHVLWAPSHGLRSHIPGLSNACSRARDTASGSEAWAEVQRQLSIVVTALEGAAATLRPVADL
Experimental: (§1) FIG. 9: is an illustration of time course of NAALAD-ase activity. Activity of membrane preparations from COS cells transiently transfected with either NAALAD-ase I (A) or […]. Hydrolysis of 500 nM 3[H]-NAAG in 1 mM ZnCl2, 50 mM Tris.HCL (pH 7.4) was assayed for 0, 15, 30 and 60 min at 37° C. in the presence (open circles) or absence (closed circles) of 30 μM quisqualate. Reactions were terminated with 250 mM ice cold sodium phosphate and released 3[H]-glutamate measured. (C) Inhibition of NAALAD-ase I (open circles) and NAALAD-ase II (closed circles) activity by increasing concentrations of quisqualic acid expressed as % of control (activity in the absence of any inhibitor).
COS cells were maintained in complete medium (DMEM supplemented with 10% foetal calf serum, 1× non-essential amino acids and a 1× strptamycin/penicillin/glutamine mix). […] The cell titre was determined in a Coulter counter and cells were seeded in 6 well plates at a density of 15000 cells/cm^2 and allowed to reach approximately 80% confluence (˜2 days growth). […]
(§2) NAALAD-ase activity was quantified by determination of the extent of hydrolysis of N-acetyl-L-aspartyl-L-(3,4-[^3H])-glutamate as previously described (Blakeley et al., 1988). […] Assay eluates were diluated with scintillation cocktail (16 ml Ultima Gold XR) and counted in a scintillation counter (Packard). […]

[2] = target: T2, LNCaP membrane NAALAD-ase (Homo sapiens, UniProt Q04609); test: Scintillation proximity assay (SPA) of [3H]-NAAG hydrolysis, LNCaP cell membrane preparations
T2 construct: 10 μg of protein from LNCaP cell membrane preparations was used per reaction; endogenous in cells; host or cells: LNCaP cell membranes
T2 sequence (Q04609 whole entry): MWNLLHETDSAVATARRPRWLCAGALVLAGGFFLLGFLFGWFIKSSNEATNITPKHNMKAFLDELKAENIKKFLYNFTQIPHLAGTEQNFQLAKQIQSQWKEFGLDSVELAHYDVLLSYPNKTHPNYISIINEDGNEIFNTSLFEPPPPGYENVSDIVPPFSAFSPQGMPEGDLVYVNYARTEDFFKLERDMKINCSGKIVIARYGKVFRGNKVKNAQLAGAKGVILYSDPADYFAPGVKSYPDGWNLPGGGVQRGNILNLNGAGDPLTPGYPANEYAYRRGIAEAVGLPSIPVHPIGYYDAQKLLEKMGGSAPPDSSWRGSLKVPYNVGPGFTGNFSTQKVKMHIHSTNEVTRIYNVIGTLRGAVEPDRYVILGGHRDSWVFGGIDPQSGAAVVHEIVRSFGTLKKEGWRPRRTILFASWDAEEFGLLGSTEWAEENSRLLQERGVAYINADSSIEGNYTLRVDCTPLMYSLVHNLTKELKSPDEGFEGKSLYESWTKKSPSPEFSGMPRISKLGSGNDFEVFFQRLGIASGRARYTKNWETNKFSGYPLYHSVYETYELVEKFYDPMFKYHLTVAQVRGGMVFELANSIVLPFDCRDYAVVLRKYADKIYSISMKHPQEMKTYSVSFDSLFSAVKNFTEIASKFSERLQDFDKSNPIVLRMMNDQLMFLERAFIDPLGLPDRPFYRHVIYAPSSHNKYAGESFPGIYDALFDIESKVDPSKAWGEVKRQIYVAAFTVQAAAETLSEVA
Experimental: (§3) FIG. 10: is an illustration of NAALAD-ase activity determinations using SPA beads. (A) 10 μg of protein from LNCaP cell membrane preparations was used per reaction to develop a high throughput assay NAALAD-ase assay. Hydrolysis of 40 nM 3[H]-NAAG in 1 mM ZnCl2, 50 mM Tris-HCL (pH 7.4) was measured at 25° C. for different incubation times in a 100 μl reaction volume. Reactions were terminated by the addition of 100 μl glycine buffer (pH 3.0) and naked YS-SPA beads. (C) Inhibition of NAALAD-ase I (open circles) or LNCaP membrane NAALAD-ase (closed circles) activity by increasing concentrations of quisqualic acid expressed as a % of control (activity in the absence of any inhibitor).
(§4) NAALAD-ase assays were performed at 37° C. or 25° C. for 10 min in the presence of 50 mM Tris-HCl, pH 7.4, containing 1 mM ZnCl2. Each assay was performed in a 100 μl reaction volume containing 40 nM 3[H]-NAAG, 50 mM Tris-HCl (pH 7.4), 1 mM Zn^2+C2 and either 10 μg of recombinant NAALAD-ase I or LNCaP cell membrane preparations. Reactions were terminated by addition of 100 μl glycine buffer (pH 3.0) and 1 mg naked YS-SPA beads. After allowing the beds to settle for 30 min, the assay mixture was counted in a microtiterplate scintillation counter. […]

[3] = target: T3, NAALAD-ase I (Homo sapiens, UniProt Q04609, Y75H); test: Scintillation proximity assay (SPA) of [3H]-NAAG hydrolysis, recombinant NAALAD-ase I membrane preparations; parameters: expressed in transfected cells
T3 sequence (Q04609 whole entry Y75H): as the sequence (Q04609 whole entry) above, with Y75H counted along it
Experimental: as §3, §4

[4] = target: T4, NAALAD-ase II (Homo sapiens, UniProt Q9Y3Q0); test: [3H]-NAAG hydrolysis assay, membranes of COS cells transiently transfected with NAALAD-ase II
T4 construct: expressed in transfected cells; host or cells: COS cells, transient, pcDNA-3
T4 sequence (Q9Y3Q0 whole entry): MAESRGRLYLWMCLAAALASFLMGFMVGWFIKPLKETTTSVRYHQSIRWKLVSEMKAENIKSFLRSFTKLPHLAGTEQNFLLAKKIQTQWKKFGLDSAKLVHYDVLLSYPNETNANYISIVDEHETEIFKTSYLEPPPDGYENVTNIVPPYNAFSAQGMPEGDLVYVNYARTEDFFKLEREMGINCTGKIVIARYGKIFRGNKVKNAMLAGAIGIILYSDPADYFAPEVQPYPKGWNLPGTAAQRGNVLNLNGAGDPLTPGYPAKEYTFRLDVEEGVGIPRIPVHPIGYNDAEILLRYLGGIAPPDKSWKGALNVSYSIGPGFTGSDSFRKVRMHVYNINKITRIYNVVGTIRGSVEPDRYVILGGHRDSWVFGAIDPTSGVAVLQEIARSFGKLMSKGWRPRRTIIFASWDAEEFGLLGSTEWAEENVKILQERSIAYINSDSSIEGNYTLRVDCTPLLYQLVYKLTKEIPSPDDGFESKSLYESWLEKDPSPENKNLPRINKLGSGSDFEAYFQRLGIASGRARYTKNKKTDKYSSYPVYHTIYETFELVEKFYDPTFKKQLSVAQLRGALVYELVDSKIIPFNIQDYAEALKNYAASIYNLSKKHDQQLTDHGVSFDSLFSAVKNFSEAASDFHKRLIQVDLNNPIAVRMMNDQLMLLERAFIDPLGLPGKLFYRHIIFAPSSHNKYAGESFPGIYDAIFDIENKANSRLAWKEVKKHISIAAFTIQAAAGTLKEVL
Experimental: as §1
(§5) COS cells were maintained in complete medium (DMEM supplemented with 10% foetal calf serum, 1× non-essential amino acids and a 1× strptamycin/penicillin/glutamine mix). Prior to transfection cells were washed twice with PBS, Ca^+2/Mg^2+ free pre-warmed to 37° C. and dissociated from culture plates by addition of a trypsin/EDTA solution for 1–2 minutes. Cells were collected after a 10 min spin at 1600 rpm and re-suspended in 1–2 ml of equilibrated (5% CO2/95% air) pre-warmed medium. The cell titre was determined in a Coulter counter and cells were seeded in 6 well plates at a density of 15000 cells/cm^2 and allowed to reach approximately 80% confluence (˜2 days growth). For each transfection 6 μl FuGENE6 (Boehringer Mannheim, Germany) was added to 96 μl serum free medium and incubated for 5 minutes at 20° C. This preparation was added to a second tube containing 1 μg of NAALAD-ase/pcDNA3 DNA, mixed gently and allowed to stand for 15 minutes at room temperature. The DNA/FuGENE6/serum-free medium mix was pipetted into a well containing 2 ml fresh complete medium. […]
as §2

[5] = target: T3, NAALAD-ase I; test: [3H]-NAAG hydrolysis assay, membranes of COS cells transiently transfected with NAALAD-ase I; parameters: expressed in transfected cells; host or cells: COS cells, transient, pcDNA-3 (CMV promoter)
Experimental: as §1, §5, §2

N[C@@H](Cn1oc(=O)[nH]c1=O)C(=O)O [quisqualic acid]
inhibition of NAALAD-ase L activity against NAAG [1]: inhibited | IC50 [2]: 0.91 µM | IC50 [3]: 1 µM | inhibition at 30 µM ([4]; 30 μM, after 60 min (FIG. 9B)): > 50% | IC50 ([4]; IC50, inhibition of NAALAD-ase II activity, 500 nM [3H]-NAAG, 37° C., 60 min, anion exchange column readout (FIG. 9C)): 17 µM | IC50 ([4]; IC50 for NAALAD-ase II (discussion, rounded), recombinant preparation from COS cells, NAAG hydrolysis): ~10 µM | inhibition at 30 µM ([5]; 30 μM, after 60 min (FIG. 9A)): > 50% | IC50 ([5]; IC50, inhibition of NAALAD-ase I activity, 500 nM [3H]-NAAG, 37° C., 30 min, anion exchange column readout (FIG. 9C)): 12 µM | IC50 ([5]; IC50 for NAALAD-ase I (discussion, rounded), recombinant preparation from COS cells, NAAG hydrolysis): ~10 µM
